Measurements as given in ChEMBL document CHEMBL1629535, “Novel small molecule inhibitors of MDR Mycobacterium tuberculosis by NMR fragment screening of antigen 85C” (2010).
In brackets after ≈: the same amount, converted by molar mass.

Experiments:
Format in all cases: functional
[1] = test system: Mycolicibacterium smegmatis; test: Growth inhibition of Mycobacterium smegmatis
[2] = test system: Mycobacterium tuberculosis; test: Growth inhibition of Mycobacterium tuberculosis H37 by radiometric BACTEC 460 assay
Mycolicibacterium aurum = test: Growth inhibition of multidrug resistance Mycobacterium aurum

| SMILES | MIC [1] | MIC [2] | MIC (Mycolicibacterium aurum) |
| --- | --- | --- | --- |
| CC1CCc2c(sc(N)c2C(N)=O)C1 (configuration not stated) | > 32 µg/mL |  |  |
| CCCC1CCc2c(sc(N)c2C#N)C1 (configuration not stated) | 16 µg/mL (≈ 72.6 µM) | 50 µg/mL (≈ 227 µM) |  |
| N#Cc1c(N)sc2c1CCCCC2 | 64 µg/mL (≈ 333 µM) | > 500 µg/mL |  |
| CCC1CCc2c(sc(N)c2C#N)C1 (configuration not stated) | 32 µg/mL (≈ 155 µM) | 50 µg/mL (≈ 242 µM) |  |
| CCCC1CCc2c(sc(N)c2C(N)=O)C1 (configuration not stated) | 64 µg/mL (≈ 269 µM) |  |  |
| CCCOc1ccc2nc(N)sc2c1 | 32 µg/mL (≈ 154 µM) | 20 µg/mL (≈ 96 µM) |  |
| CCC1CCc2c(sc(N)c2C(N)=O)C1 (configuration not stated) | 64 µg/mL (≈ 285 µM) |  |  |
| [N-]=[N+]=NC[C@H]1O[C@H](O[C@H]2O[C@H](CO)[C@@H](O)[C@H](O)[C@H]2O)[C@H](O)[C@@H](O)[C@@H]1O |  |  | 200 µg/mL (≈ 544 µM) |
